Source: patent US20250059179A1, “Heterocyclic Compounds and Methods of Use” (AMGEN INC., priority 2021, published 2025)
pIC50: −log10 of the molar value.

Legend:
[1] = molecular target: His-tagged KRAS G12D protein (Homo sapiens, UniProt P01116, G12D); assay: KRAS G12D TR-FRET Assay; format: binding; settings: biotinylated KRPep-2d substrate, 10 μM GDP;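 further: europium anti-His antibody paired with streptavidin-d2 as FRET partners, initial 30 min incubation, then peptide 1 h and detection reagents 1 h, all at room temperature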
His-tagged KRAS G12D protein, sequence (P01116 1-188 isoform P01116-2 G12D): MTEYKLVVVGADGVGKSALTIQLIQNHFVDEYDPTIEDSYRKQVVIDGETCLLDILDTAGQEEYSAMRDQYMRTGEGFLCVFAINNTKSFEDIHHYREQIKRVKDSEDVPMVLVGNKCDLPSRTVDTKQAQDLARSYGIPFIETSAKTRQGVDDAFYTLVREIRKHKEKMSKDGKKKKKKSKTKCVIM

[2] = molecular target: GDP-bound KRAS protein (aa 1-169), containing both G12D and C118A amino acid substitutions (Homo sapiens, UniProt P01116, C118A/G12D); assay: KRAS G12D Coupled Nucleotide Exchange Assay; format: biochemical; settings: 2 h compound pre-incubation; SOS-mediated nucleotide exchange, cRAF AlphaScreen readout;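 further: IC50 obtained by fitting the AlphaScreen signal with a four-parameter logistic curve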
GDP-bound KRAS protein (aa 1-169), containing both G12D and C118A amino acid substitutions, sequence (P01116 1-169 isoform P01116-2 G12D/C118A): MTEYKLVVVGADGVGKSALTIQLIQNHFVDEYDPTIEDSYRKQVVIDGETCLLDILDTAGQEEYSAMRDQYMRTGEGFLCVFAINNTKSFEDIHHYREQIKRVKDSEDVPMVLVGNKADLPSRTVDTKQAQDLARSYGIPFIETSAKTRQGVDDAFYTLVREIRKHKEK

SMILES	pIC50 [1]	Avg 2 h Coupled Exchange IC50 [2] [nM]
Nc1nc2c(-c3c(Cl)cc4c(N5CCNCC5)nc(OC[C@@H]5CCCN5CC(F)F)nc4c3F)cccc2s1 [Example 66, 4-(6-chloro-2-(((S)-1-(2,2-difluoroethyl)pyrrolidin-2-yl)methoxy)-8-fluoro-4-(piperazin-1-yl)quinazolin-7-yl)benzo[d] thiazol-2-amine]	5.79	549
CN1CCC[C@H]1COc1nc(N2CCN[C@@H](CO)C2)c2cc(Cl)c(-c3cccc4sc(N)nc34)c(F)c2n1 [Example 25, ((2R)-4-(7-(2-aminobenzo[d]thiazol-4-yl)-6-chloro-8-fluoro-2-(((S)-1-methylpyrrolidin-2-yl)methoxy)quinazolin-4-yl)piperazin-2-yl)methanol]	6.62	181
Nc1nc2c(-c3c(Cl)cc4c(N5CCCNC(=O)C5)nc(OCC56CCCN5CCC6)nc4c3F)ccc(F)c2s1 [Example 12, 4-(7-(2-amino-7-fluorobenzo[d]thiazol-4-yl)-6-chloro-8-fluoro-2-((tetrahydro-1H-pyrrolizin-7a(5H)-yl)methoxy)quinazolin-4-yl)-1,4-diazepan-2-one]	7.74	14
Nc1nc2c(-c3c(F)cc4c(N5C[C@H]6CC[C@@H](C5)N6)nc(OC[C@@]56CCCN5C[C@H](F)C6)nc4c3F)ccc(F)c2s1 [Example 141, 4-(4-((1R,5S)-3,8-diazabicyclo [3.2.1]octan-3-yl)-6,8-difluoro-2-(((2R,7aS)-2-fluorotetrahydro-1H-pyrrolizin-7a(5H)-yl)methoxy)quinazolin-7-yl)-7-fluorobenzo[d]thiazol-2-amine]	8.70	2
Nc1nc2c(-c3c(Cl)cc4c(N5CCNCC5)nc(OCC56CCCN5CC(F)(F)C6)nc4c3F)cccc2s1 (centres unmarked) [Example 54, 4-(6-chloro-2-((2,2-difluorotetra-hydro-1H-pyrrolizin-7a(5H)-yl)methoxy)-8-fluoro-4-(piperazin-1-yl)quinazolin-7-yl)benzo[d] thiazol-2-amine]	7.06	79
CN1C[C@H](F)C[C@H]1COc1nc(N2CCNC(=O)CC2)c2cc(Cl)c(-c3ccc(F)c4sc(N)nc34)c(F)c2n1 [Example 21, 1-(7-(2-amino-7-fluorobenzo[d]thiazol-4-yl)-6-chloro-8-fluoro-2-(((2S,4R)-4-fluoro-1-methylpyrrolidin-2-yl)methoxy)quinazolin-4-yl)-1,4-diazepan-5-one]	7.01	67
Cc1cc(-c2c(Cl)cc3c(N4CCNCC4)nc(OC[C@@H]4CCCN4C)nc3c2F)c2nc(N)sc2c1 [Example 129, 4-(6-chloro-8-fluoro-2-(((S)-1-methylpyrrolidin-2-yl)methoxy)-4-(piperazin-1-yl)quinazolin-7-yl)-6-methylbenzo[d]thiazol-2-amine]	5.28	1090
CN1CC(F)(F)C[C@H]1COc1nc(N2CCNCC2)c2cc(Cl)c(-c3cccc4sc(N)nc34)c(F)c2n1 [Example 65, 4-(6-chloro-2-(((S)-4,4-difluoro-1-methyl-pyrrolidin-2-yl)methoxy)-8-fluoro-4-(piperazin-1-yl)quinazolin-7-yl)benzo[d] thiazol-2-amine]	5.74	504
CN1CCC[C@H]1COc1nc(N2CCNC(=O)C2)c2cc(Cl)c(-c3cccc4sc(N)nc34)c(F)c2n1 [Example 23, 4-(7-(2-aminobenzo[d]thiazol-4-yl)-6-chloro-8-fluoro-2-(((S)-1-methylpyrrolidin-2-yl)methoxy)quinazolin-4-yl)piperazin-2-one]	6.17	166
Nc1nc2c(-c3c(Cl)cc4c(N5CCNCC5)nc(OC[C@@H]5CC(F)(F)CN5)nc4c3F)cccc2s1 [Example 59, 4-(6-chloro-2-(((S)-4,4-difluoro-pyrrolidin-2-yl)methoxy)-8-fluoro-4-(piperazin-1-yl)quinazolin-7-yl)benzo[d] thiazol-2-amine]	6.16	321
